Laboratory results: the supplement of paper PMC11208160

Test: recombinant UMI read abundance after kanamycin selection (control-corrected) (log10(CPM+1)); higher = more efficient recombination; extreme values may be limits of the assay; sequences stand for … in AGTGCAGAGAAAATCGGCCAGTTTTCTCTGCCTGCAGTCCGCATGCCGTGGGACCCCTTGGGTTCTAACCTGTTGCCTAGATTTATGCAGCGGACTGCCTTTCTCCCAAAGTGATAAACCGG…AGGTTGGTTTCACT; site = the 11-nt donor
Summary of the method: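 For the IS621 bridge recombinase, a pooled Escherichia coli screen tested donor and donor-binding-loop pairs. Cells received the pair library together with a target plasmid encoding a fixed target and T7-inducible recombinase, then went onto IPTG (0.07 mM) plus kanamycin or unselected plates in duplicate. After PCR across the donor–target junction and sequencing, recombinant UMI counts were normalized to CPM, averaged, and scaled by control-derived factors. Each value is given as log10(CPM+1).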
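Also: IS621 bridge recombinase in Escherichia coli cells against a fixed T5 target plasmid.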

Sequence | recombinant UMI read abundance (log10)
TATTAACCATGGACCGGTTTTCCCGGTAATCCGTATTTGCC (site TATTAACCTGG) | 0
TATTCAACATGGACCGGTTTTCCCGGTAATCCGTATTTGCC (site TATTCAACTGG) | 0.527
TATTCGGCATGGACCGGTTTTCCCGGTAATCCGTATTTGGT (site TATTCGGCTAC) | 0
TATTCTGCATGGACCGGTTTTCCCGGTAATCCGTATTTGGA (site TATTCTGCTTC) | 0.603
TATTTAGCATGGACCGGTTTTCCCGGTAATCCGTATTTGTG (site TATTTAGCTCA) | 0.31
TATTTAGCATGGACCGGTTTTCCCGGTAATCCGTATTTGTG (site TATTTCGCTCA) | 0.026
TATTTAGCATGGACCGGTTTTCCCGGTAATCCGTATTTGTG (site TATTTGGCTCA) | 0.0112
TATTTAGCATGGACCGGTTTTCCCGGTAATCCGTATTTGTG (site TATTTTGCTCA) | 0.0238
TATTTGGCATGGACCGGTTTTCCCGGTAATCCGTATTTGGG (site TATTTGGCTCA) | 0
TATTTGGCATGGACCGGTTTTCCCGGTAATCCGTATTTGGG (site TATTTGGCTCC) | 0.0427
TATTTGGCATGGACCGGTTTTCCCGGTAATCCGTATTTGGG (site TATTTGGCTCG) | 0.0185
TATTTGGCATGGACCGGTTTTCCCGGTAATCCGTATTTGGG (site TATTTGGCTCT) | 0.0188
TCAAATTCATGGACCGGTTTTCCCGGTAATCCGTATTTGCC (site TCAAATTCTGG) | 0.558
TCAAATTCATGGACCGGTTTTCCCGGTAATCCGTATTTGCC (site TCCAATTCTGG) | 0
TCAAATTCATGGACCGGTTTTCCCGGTAATCCGTATTTGCC (site TCGAATTCTGG) | 0
TCAAATTCATGGACCGGTTTTCCCGGTAATCCGTATTTGCC (site TCTAATTCTGG) | 0
TCAACCCCATGGACCGGTTTTCCCGGTAATCCGTATTTGGT (site TCAACCCCTAC) | 0
TCAACGTCATGGACCGGTTTTCCCGGTAATCCGTATTTGCA (site TCAACGTCTTG) | 0
TCAAGAACATGGACCGGTTTTCCCGGTAATCCGTATTTGGG (site TCAAGAACTCC) | 0.301

Sequence | recombinant UMI read abundance (log10)
TCACACACATGGACCGGTTTTCCCGGTAATCCGTATTTGAT (site TCACACACTAT) | 1.33
TCACACACATGGACCGGTTTTCCCGGTAATCCGTATTTGTG (site TCACACACTCA) | 0.198
TCACACTCATGGACCGGTTTTCCCGGTAATCCGTATTTGCA (site TCAAACTCTTG) | 0
TCACACTCATGGACCGGTTTTCCCGGTAATCCGTATTTGCA (site TCACACTCTTG) | 2.68
TCACACTCATGGACCGGTTTTCCCGGTAATCCGTATTTGCA (site TCAGACTCTTG) | 0
TCACACTCATGGACCGGTTTTCCCGGTAATCCGTATTTGCA (site TCATACTCTTG) | 1.85
TCACGACCATGGACCGGTTTTCCCGGTAATCCGTATTTGTG (site TCACGACCTCA) | 0.0189
TCACGGCCATGGACCGGTTTTCCCGGTAATCCGTATTTGGT (site TCACGGCCTAC) | 0.00583
TCACTAACATGGACCGGTTTTCCCGGTAATCCGTATTTGGA (site TCACTAACTTC) | 0.957
TCACTATCATGGACCGGTTTTCCCGGTAATCCGTATTTGCA (site ACAGTATCTTG) | 0
TCACTATCATGGACCGGTTTTCCCGGTAATCCGTATTTGCA (site TCACTATCTTG) | 2.41
TCACTCGCATGGACCGGTTTTCCCGGTAATCCGTATTTGAA (site TCACTCGCTTT) | 1.86
TCAGACCCATGGACCGGTTTTCCCGGTAATCCGTATTTGGA (site TCAGACCCTTC) | 0.201
TCAGAGACATGGACCGGTTTTCCCGGTAATCCGTATTTGAG (site TCAGAGACTCA) | 0.02
TCAGAGACATGGACCGGTTTTCCCGGTAATCCGTATTTGAG (site TCAGAGACTCC) | 0.288
TCAGAGACATGGACCGGTTTTCCCGGTAATCCGTATTTGAG (site TCAGAGACTCG) | 0.938
TCAGAGACATGGACCGGTTTTCCCGGTAATCCGTATTTGAG (site TCAGAGACTCT) | 1.82
TCAGAGACATGGACCGGTTTTCCCGGTAATCCGTATTTGCG (site ACAGAGACTCG) | 1.11
TCAGAGACATGGACCGGTTTTCCCGGTAATCCGTATTTGCG (site CCAGAGACTCG) | 1.66

Sequence | recombinant UMI read abundance (log10)
TCAGAGACATGGACCGGTTTTCCCGGTAATCCGTATTTGCG (site GCAGAGACTCG) | 0.00466
TCAGAGACATGGACCGGTTTTCCCGGTAATCCGTATTTGCG (site TAAGAGACTCG) | 1.02
TCAGAGACATGGACCGGTTTTCCCGGTAATCCGTATTTGCG (site TCAAAGACTCG) | 1.55
TCAGAGACATGGACCGGTTTTCCCGGTAATCCGTATTTGCG (site TCACAGACTCG) | 0.316
TCAGAGACATGGACCGGTTTTCCCGGTAATCCGTATTTGCG (site TCAGAAACTCG) | 1.73
TCAGAGACATGGACCGGTTTTCCCGGTAATCCGTATTTGCG (site TCAGACACTCG) | 0.327
TCAGAGACATGGACCGGTTTTCCCGGTAATCCGTATTTGCG (site TCAGAGACTAG) | 0.65
TCAGAGACATGGACCGGTTTTCCCGGTAATCCGTATTTGCG (site TCAGAGACTCA) | 0.943
TCAGAGACATGGACCGGTTTTCCCGGTAATCCGTATTTGCG (site TCAGAGACTCC) | 0.0212
TCAGAGACATGGACCGGTTTTCCCGGTAATCCGTATTTGCG (site TCAGAGACTCG) | 2.3
TCAGAGACATGGACCGGTTTTCCCGGTAATCCGTATTTGCG (site TCAGAGACTCT) | 0.0281
TCAGAGACATGGACCGGTTTTCCCGGTAATCCGTATTTGCG (site TCAGAGACTGG) | 0.387
TCAGAGACATGGACCGGTTTTCCCGGTAATCCGTATTTGCG (site TCAGAGACTTG) | 1.84
TCAGAGACATGGACCGGTTTTCCCGGTAATCCGTATTTGCG (site TCAGAGCCTCG) | 0.0106
TCAGAGACATGGACCGGTTTTCCCGGTAATCCGTATTTGCG (site TCAGAGGCTCG) | 1.98
TCAGAGACATGGACCGGTTTTCCCGGTAATCCGTATTTGCG (site TCAGAGTCTCG) | 1.37
TCAGAGACATGGACCGGTTTTCCCGGTAATCCGTATTTGCG (site TCAGATACTCG) | 0.784
TCAGAGACATGGACCGGTTTTCCCGGTAATCCGTATTTGCG (site TCAGCGACTCG) | 0.00351
TCAGAGACATGGACCGGTTTTCCCGGTAATCCGTATTTGCG (site TCAGGGACTCG) | 0.0144
